Assay results as given in PubChem BioAssay (NCI).
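GI50 marks 50% less growth. TGI: concentration producing complete growth inhibition.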

Legend:
Assay in all cases: NCI tumour cell line growth inhibition, 384-well format; in the data active means GI50 below about 0.43 µM; inactive means the rest
[1] = system: IGROV1 ovarian
[2] = system: OVCAR-3 ovarian
[3] = system: SK-OV-3 ovarian
[4] = system: SF-268 CNS
[5] = system: RPMI-8226 leukemia
[6] = system: SK-MEL-5 melanoma
[7] = system: NCI-H322M lung
[8] = system: OVCAR-5 ovarian
[9] = system: HT29 colon
[10] = system: SNB-75 CNS
[11] = system: MDA-MB-435 melanoma
[12] = system: U251 glioblastoma
[13] = system: PC-3 prostate
[14] = system: K-562 leukemia
[15] = system: HL-60(TB) leukemia
[16] = system: NCI/ADR-RES ovarian
[17] = system: OVCAR-8 ovarian
[18] = system: UO-31 renal
[19] = system: NCI-H460 NSCLC
[20] = system: NCI-H522 lung
[21] = system: 786-0 renal
[22] = system: RXF 393 renal
[23] = system: ACHN renal
[24] = system: LOX IMVI melanoma
[25] = system: M14 melanoma
[26] = system: NCI-H226 lung
[27] = system: A498 renal
[28] = system: HCC-2998 colon
[29] = system: HCT-15 colon
[30] = system: MALME-3M melanoma
[31] = system: MDA-MB-231 breast
[32] = system: CCRF-CEM leukemia
[33] = system: MOLT-4 leukemia
[34] = system: SK-MEL-28 melanoma
[35] = system: KM12 colon
[36] = system: A549 NSCLC
[37] = system: HCT-116 colon
[38] = system: MDA-MB-468 breast
[39] = system: SN12C renal
[40] = system: HOP-92 NSCLC
[41] = system: OVCAR-4 ovarian
[42] = system: HS 578T breast
[43] = system: BT-549 breast
[44] = system: NCI-H23 lung
[45] = system: MCF7 breast
[46] = system: SW-620 colon
[47] = system: SF-539 CNS
[48] = system: DU-145 prostate
[49] = system: T-47D breast
[50] = system: EKVX NSCLC
[51] = system: HOP-62 NSCLC
[52] = system: SF-295 CNS
[53] = system: TK-10 renal
[54] = system: CAKI-1 renal
[55] = system: UACC-62 melanoma
[56] = system: UACC-257 melanoma
[57] = system: COLO 205 colon
[58] = system: SNB-19 CNS

COC[C@H](NC(=O)c1cnc(C)s1)C(=O)N[C@@H](COC)C(=O)N[C@@H](Cc1ccccc1)C(=O)[C@@]1(C)CO1
23 nM: TGI [3] | TGI [15]
35.4 nM: TGI [14]
223 nM: TGI [48]
30.3 nM: TGI [39]
25.6 nM: TGI [12]
2910 nM: TGI [16]
16.4 nM: TGI [58]
11.7 nM: TGI [56]
154 nM: TGI [29]
< 10 nM: TGI [2] | TGI [4] | TGI [5] | TGI [6] | TGI [9] | TGI [10] | TGI [11] | TGI [20] | TGI [22] | TGI [25] | TGI [26] | TGI [30] | TGI [31] | TGI [32] | TGI [33] | TGI [35] | TGI [37] | TGI [38] | TGI [40] | TGI [42] | TGI [43] | TGI [44] | TGI [46] | TGI [47] | TGI [49] | TGI [51] | TGI [52] | TGI [55]
51.2 nM: TGI [1]
12.8 nM: TGI [34]
236 nM: TGI [7]
1790 nM: TGI [54]
256 nM: TGI [36]
156 nM: TGI [23]
33 nM: TGI [18]
1530 nM: TGI [57]
127 nM: TGI [21]
24 nM: TGI [13]
62.2 nM: TGI [17]
81.2 nM: TGI [8]
29.8 nM: TGI [41]
10.3 nM: TGI [27]
11.2 nM: TGI [28]
inactive: GI50 [16] 1290 nM
active: GI50 [1] 15 nM | GI50 [2] < 10 nM | GI50 [3] < 10 nM | GI50 [4] < 10 nM | GI50 [5] < 10 nM | GI50 [6] < 10 nM | GI50 [7] < 10 nM | GI50 [8] < 10 nM | GI50 [9] < 10 nM | GI50 [10] < 10 nM | GI50 [11] < 10 nM | GI50 [12] 10.2 nM | GI50 [13] 10.5 nM | GI50 [14] 11 nM | GI50 [15] 10.7 nM | GI50 [17] < 10 nM | GI50 [18] 17.2 nM | GI50 [19] 23.1 nM | GI50 [20] < 10 nM | GI50 [21] < 10 nM | GI50 [22] < 10 nM | GI50 [23] < 10 nM | GI50 [24] < 10 nM | GI50 [25] < 10 nM | GI50 [26] < 10 nM | GI50 [27] < 10 nM | GI50 [28] < 10 nM | GI50 [29] 36.8 nM | GI50 [30] < 10 nM | GI50 [31] < 10 nM | GI50 [32] < 10 nM | GI50 [33] < 10 nM | GI50 [34] < 10 nM | GI50 [35] < 10 nM | GI50 [36] < 10 nM | GI50 [37] < 10 nM | GI50 [38] < 10 nM | GI50 [39] 10.7 nM | GI50 [40] < 10 nM | GI50 [41] 12.3 nM | GI50 [42] < 10 nM | GI50 [43] < 10 nM | GI50 [44] < 10 nM | GI50 [45] < 10 nM | GI50 [46] < 10 nM | GI50 [47] < 10 nM | GI50 [48] < 10 nM | GI50 [49] < 10 nM | GI50 [50] 14.4 nM | GI50 [51] < 10 nM | GI50 [52] < 10 nM | GI50 [53] < 10 nM | GI50 [54] < 10 nM | GI50 [55] < 10 nM | GI50 [56] < 10 nM | GI50 [57] < 10 nM | GI50 [58] < 10 nM
12 nM: TGI [24]
77.3 nM: TGI [50]
99.6 nM: TGI [19]
325 nM: TGI [45]
22.5 nM: TGI [53]
